Laboratory results: publication PMC12221116, “Novel Quinazolinones Active against Multidrug‐Resistant Mycobacterium Tuberculosis: Synthesis, Antimicrobial Evaluation, and in Silico Exploration of Penicillin‐Binding Protein 1A as a Potential Target” (Chemmedchem, 2025)
In brackets after ≈: the same amount, converted by molar mass. Where two headings read alike, the source gives them in different places.

Assays:
Experiment in all cases: microbe, parasite or virus in culture
Assay type in all cases: cell-based, Mycobacterium tuberculosis
[1] = system: Mtb IZAK; conditions: for MIC: Mycobacterium tuberculosis, read-out: MIC Mtb IZAK
[2] = system: Mtb MATI; conditions: for MIC: Mycobacterium tuberculosis, read-out: MIC Mtb MATI
[3] = system: Mtb SORO; conditions: for MIC: Mycobacterium tuberculosis, read-out: MIC Mtb SORO
[4] = system: Mtb TIAS; conditions: for MIC: Mycobacterium tuberculosis, read-out: MIC Mtb TIAS
[5] = system: Mtb YAGY; conditions: for MIC: Mycobacterium tuberculosis, read-out: MIC Mtb YAGY
[6] = system: Mtb TURZ; conditions: for MIC: Mycobacterium tuberculosis, read-out: MIC Mtb TURZ
[7] = system: Mtb IZAK; conditions: for Susceptible/resistant Mtb IZAK: CLSI methodology; for MIC: Mycobacterium tuberculosis, read-out: MIC, susceptibility pattern Mtb IZAK
[8] = system: Mtb MATI; conditions: for Susceptible/resistant Mtb MATI: CLSI methodology; for MIC: Mycobacterium tuberculosis, read-out: MIC, susceptibility pattern Mtb MATI
[9] = system: Mtb SORO; conditions: for Susceptible/resistant Mtb SORO: CLSI methodology; for MIC: Mycobacterium tuberculosis, read-out: MIC, susceptibility pattern Mtb SORO
[10] = system: Mtb TIAS; conditions: for Susceptible/resistant Mtb TIAS: CLSI methodology; for MIC: Mycobacterium tuberculosis, read-out: MIC, susceptibility pattern Mtb TIAS
[11] = system: Mtb YAGY; conditions: for Susceptible/resistant Mtb YAGY: CLSI methodology; for MIC: Mycobacterium tuberculosis, read-out: MIC, susceptibility pattern Mtb YAGY
[12] = system: Mtb TURZ; conditions: for Susceptible/resistant Mtb TURZ: CLSI methodology; for MIC: Mycobacterium tuberculosis, read-out: MIC, susceptibility pattern Mtb TURZ
[13] = drug-resistant clinical isolate
[14] = mycobacteria growth indicator tube (MGIT), concentration 100 mg/l

Row | SMILES | MIC [1] | MIC [2] | MIC [3] | MIC [4] | MIC [5] | MIC [6] | Susceptible/resistant Mtb IZAK [7] | MIC [7] | Susceptible/resistant Mtb MATI [8] | MIC [8] | Susceptible/resistant Mtb SORO [9] | MIC [9] | Susceptible/resistant Mtb TIAS [10] | MIC [10] | Susceptible/resistant Mtb YAGY [11] | MIC [11] | Susceptible/resistant Mtb TURZ [12] | MIC [12] | other results
1 | Cc1nc2ccccc2c(=O)n1Cc1cccc(Cl)c1 [Compound 6] |  |  |  |  |  |  |  |  |  |  |  |  |  |  |  |  |  |  | MIC Mtb IZAK [1, 13]: >100 µg/mL; MIC Mtb MATI [2, 13]: 50 µg/mL (≈ 176 µM); MIC Mtb SORO [3, 13]: 25 µg/mL (≈ 87.8 µM); MIC Mtb TIAS [4, 13]: 25 µg/mL (≈ 87.8 µM); MIC Mtb YAGY [5, 13]: 12.5 µg/mL (≈ 43.9 µM); MIC Mtb TURZ [6, 13]: 25 µg/mL (≈ 87.8 µM)
2 | COc1ccc(Cn2c(C)nc3cc(Cl)ccc3c2=O)cc1 [Compound 17] | 12.5 µg/mL (≈ 39.7 µM) | 12.5 µg/mL (≈ 39.7 µM) | 12.5 µg/mL (≈ 39.7 µM) | 12.5 µg/mL (≈ 39.7 µM) | 12.5 µg/mL (≈ 39.7 µM) | 12.5 µg/mL (≈ 39.7 µM) |  |  |  |  |  |  |  |  |  |  |  |  | 
3 | Cc1nc2cc(Cl)ccc2c(=O)n1Cc1ccc(F)cc1 [Compound 19] | > 50 µg/mL | > 50 µg/mL | > 50 µg/mL | 12.5 µg/mL (≈ 41.3 µM) | 12.5 µg/mL (≈ 41.3 µM) | 12.5 µg/mL (≈ 41.3 µM) |  |  |  |  |  |  |  |  |  |  |  |  | 
4 | Cc1nc2cc(Cl)ccc2c(=O)n1Cc1cccc(Cl)c1 [Compound 21] | > 100 µg/mL | > 100 µg/mL | > 100 µg/mL | 12.5 µg/mL (≈ 39.2 µM) | 12.5 µg/mL (≈ 39.2 µM) | 12.5 µg/mL (≈ 39.2 µM) |  |  |  |  |  |  |  |  |  |  |  |  | 
5 | Cc1nc2cc(Cl)ccc2c(=O)n1Cc1ccc(Cl)c(Cl)c1 [Compound 24] | > 100 µg/mL | > 100 µg/mL | 100 µg/mL (≈ 283 µM) | 6.25 µg/mL (≈ 17.7 µM) | 6.25 µg/mL (≈ 17.7 µM) | 6.25 µg/mL (≈ 17.7 µM) |  |  |  |  |  |  |  |  |  |  |  |  | 
6 | Cc1nc2cc(Cl)ccc2c(=O)n1/N=C/c1ccc(O)c([N+](=O)[O-])c1 [Compound 25] | > 25 µg/mL | 12.5 µg/mL (≈ 34.8 µM) | 12.5 µg/mL (≈ 34.8 µM) | 25 µg/mL (≈ 69.7 µM) | 6.25 µg/mL (≈ 17.4 µM) | 25 µg/mL (≈ 69.7 µM) |  |  |  |  |  |  |  |  |  |  |  |  | 
7 | NNC(=O)c1ccncc1 [INH, isoniazid, reference compound] | > 100 µg/mL | > 100 µg/mL | > 100 µg/mL | > 100 µg/mL | > 100 µg/mL | > 100 µg/mL | R | 4 µg/mL (≈ 29.2 µM) | R | > 8 µg/mL | R | 4 µg/mL (≈ 29.2 µM) | R | > 8 µg/mL | R | 4 µg/mL (≈ 29.2 µM) | R | > 8 µg/mL | 
8 | CO[C@H]1/C=C/O[C@@]2(C)Oc3c(C)c(O)c4c(O)c(c(/C=N/N5CCN(C)CC5)c(O)c4c3C2=O)NC(=O)/C(C)=C\C=C\[C@H](C)[C@H](O)[C@@H](C)[C@@H](O)[C@@H](C)[C@H](OC(C)=O)[C@@H]1C [RIF, rifampicin] |  |  |  |  |  |  | R | > 8 µg/mL | R | > 8 µg/mL | S | 0.125 µg/mL (≈ 0.152 µM) | S | 0.125 µg/mL (≈ 0.152 µM) | R | 8 µg/mL (≈ 9.72 µM) | R | > 8 µg/mL | 
9 | NCC[C@H](O)C(=O)N[C@@H]1C[C@H](N)[C@@H](O[C@H]2O[C@H](CN)[C@@H](O)[C@H](O)[C@H]2O)[C@H](O)[C@H]1O[C@H]1O[C@H](CO)[C@@H](O)[C@H](N)[C@H]1O [amikacin] |  |  |  |  |  |  |  |  |  |  | S | 1 µg/mL (≈ 1.71 µM) | S | 1 µg/mL (≈ 1.71 µM) | R | > 64 µg/mL | S | 0.5 µg/mL (≈ 0.854 µM) | 
10 | CC(C)/N=c1\cc2n(-c3ccc(Cl)cc3)c3ccccc3nc-2cc1Nc1ccc(Cl)cc1 [clofazimine] |  |  |  |  |  |  |  |  |  |  | S | 0.25 µg/mL (≈ 0.528 µM) |  |  |  |  |  |  | 
11 | CC[C@@H](CO)NCCN[C@@H](CC)CO [ethambutol] |  |  |  |  |  |  | S | 0.5 µg/mL (≈ 2.45 µM) | S | 0.5 µg/mL (≈ 2.45 µM) | R | 2 µg/mL (≈ 9.79 µM) | R | 1 µg/mL (≈ 4.89 µM) | R | 4 µg/mL (≈ 19.6 µM) | R | 1 µg/mL (≈ 4.89 µM) | 
12 | COc1c(N2C[C@@H]3CCCN[C@@H]3C2)c(F)cc2c(=O)c(C(=O)O)cn(C3CC3)c12 [moxifloxacin] |  |  |  |  |  |  |  |  |  |  | S | 0.25 µg/mL (≈ 0.623 µM) | S | 0.25 µg/mL (≈ 0.623 µM) | S | 0.25 µg/mL (≈ 0.623 µM) | S | 0.25 µg/mL (≈ 0.623 µM) | 
13 | NC(=O)c1cnccn1 [pyrazinamide] |  |  |  |  |  |  | R | > 16 µg/mL | R | > 128 µg/mL |  |  |  |  |  |  |  |  | Susceptible/resistant Mtb SORO (MGIT) [9, 14]: S ^b); Susceptible/resistant Mtb TIAS (MGIT) [10, 14]: S ^b); Susceptible/resistant Mtb YAGY (MGIT) [11, 14]: R ^b); Susceptible/resistant Mtb TURZ (MGIT) [12, 14]: S ^b)
14 | [H]/N=C(/N)N[C@H]1[C@H](O)[C@@H](O)[C@H](O[C@@H]2O[C@@H](C)[C@](O)(C=O)[C@H]2O[C@@H]2O[C@@H](CO)[C@H](O)[C@@H](O)[C@@H]2NC)[C@@H](N/C(N)=N\[H])[C@@H]1O [streptomycin] |  |  |  |  |  |  | R | 4 µg/mL (≈ 6.88 µM) | R | > 16 µg/mL | R | 4 µg/mL (≈ 6.88 µM) | R | 4 µg/mL (≈ 6.88 µM) | R | > 16 µg/mL | R | 16 µg/mL (≈ 27.5 µM) | 
